# Laboratory results: publication PMC3169616, “Unique Residues Involved in Activation of the Multitasking Protease/Chaperone HtrA from Chlamydia trachomatis” (PLoS ONE, 2011)
# “Also recorded” adds a separate entry of the source.
# Target: T1, CtHtrA (Chlamydia trachomatis serovar D, UniProt P18584)
# T1 construct: His-tag; made in house; host or cells: E. coli BL21 (DE3), plasmid pETHtrA
# T1 sequence (P18584 17-497): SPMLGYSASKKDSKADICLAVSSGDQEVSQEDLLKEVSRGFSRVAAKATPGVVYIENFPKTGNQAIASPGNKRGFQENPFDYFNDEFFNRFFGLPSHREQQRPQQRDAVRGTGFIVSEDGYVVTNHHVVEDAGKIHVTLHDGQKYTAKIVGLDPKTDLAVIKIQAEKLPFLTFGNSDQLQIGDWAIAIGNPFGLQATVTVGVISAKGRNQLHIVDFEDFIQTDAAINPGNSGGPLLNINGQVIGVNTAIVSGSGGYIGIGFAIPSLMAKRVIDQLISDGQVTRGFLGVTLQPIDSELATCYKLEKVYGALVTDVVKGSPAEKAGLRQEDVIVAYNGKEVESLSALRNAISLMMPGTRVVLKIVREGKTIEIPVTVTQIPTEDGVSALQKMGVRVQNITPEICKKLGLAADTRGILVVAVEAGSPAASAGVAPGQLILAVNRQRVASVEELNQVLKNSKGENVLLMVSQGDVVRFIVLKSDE
# Assay: Activation of CtHtrA cleavage of Bcas1 substrate by added activator
# Assay type: biochemical
# Conditions: substrate Bcas1 (MCA-ENLHLPLPIIF-DNP), fluorimetric, 37°C
# Experimental: To determine if the addition of a second peptide to the protease assays could activate or increase CtHtrA proteolysis, two activator peptides were tested in the CtHtrA cleavage of the model ß-casein peptide substrate Bcas1. The first was based on the ß-casein C-terminal sequence (Act1: NH2-VLGPVRGPFPIIV-OH) and the second on insulin b chain C-terminal sequence (Act2: NH2-CGELGFFYTP-OH).
# Finally, in order to determine if the 24-mer (highest amount with MOMP protein, or Act1), or 12-mer, or both, corresponds to enhanced protease activity, the incubations of CtHtrA and these potential in vivo activators were used for protease assays with the Bcas1 substrate (Fig. 6). […] The presence of the majority of CtHtrA as higher order oligomers correlated with an increased rate of proteolysis for CtHtrA, particularly when these oligomers were predominately 24-mers.
# The purified recombinant protein was examined by Coomassie stained polyacrylamide gels and activity was checked using ß-casein cleavage assays prior to use in peptide assays. Briefly, this involved incubating 2 µg of the protease with 10 µg of ß-casein in 50 mM Tris pH 7.0, 20 mM MgCl2 for 2 h prior to examining the assays by SDS PAGE (ß-casein and protease only controls were always conducted). Protease assays using peptides were conducted using custom synthesised peptides (Mimotopes). […] Protease assays using pNA labelled peptides were conducted using the xMARK Microplate spectrophotometer (Bio-Rad) at 405 nm, incubated at 37°C, with a reading taken every 10 s for 30 min. The maximum slope over a minimum of 8 readings was used for the data analysis. […] The assays were excited at 340 nm and emission was detected at 405 nm with a gain of 1000, the assays were monitored every 20 s or at the minimum cycle time for up to 40 min. […] The assay results shown for the fluorescent compounds have been normalised for the amount of fluorescent emission detected using a standard curve of known concentrations of the MCA fluorophore under the identical assay conditions. […]
substance,measurement,value
H-VLGPVRGPFPIIV-OH [Act1],effect of activator on rate of CtHtrA proteolysis of Bcas1,greater ability of the two activators to increase the proteolysis rate; also recorded: increased proteolysis rate
